# Measurements taken from patent US20050215490A1, “Polyene polyketides and methods of treating bacterial infections” (Ecopia BioSciences, Inc., priority 2003, published 2005).
# Read-outs that look alike come from different tables or passages of the source.
# Assays:
# [1] = test system: Staphylococcus aureus (Smith strain, ATCC™ 13709); test: In vivo efficacy, acute lethal S. aureus infection in mice; details: ICR mice; i.p. one hour post infection; lowest dose tested; 100% protection
# Protocol: B. Efficacy: In vivo efficacy studies were performed on ICR mice (supplied by Charles River Laboratories, Wilmington, Mass.) having a bodyweight of 20±2 g. Mice (38) were inoculated i.p. with an LD90-100 dose (1×10^6 CFU/mouse) of Staphylococcus aureus (Smith strain, ATCC™ 13709) suspended in 0.5 mL of BHI containing 5% mucin. Compound 1 at doses 20, 30, 40, 50, 60 and 70 mg/kg (formulated in 20% propylene glycol/water for a total volume of 10 μL/g of weigth) was administered i.p. one hour post infection (5 mice for each concentration). Another group of 5 mice was treated i.v. with a 10 mg/kg dose of Vancomycin. A last group of 3 mice was administered vehicle only. Mortality was recorded for 7 days.
# [2] = test system: Staphylococcus aureus MRS3 (ATCC™ 700699); test: MIC, broth microdilution (NCCLS M7-A5); assay type: cell-based; details: read-out: MIC
# Protocol: (§1) Antibacterial activity of Compounds 1 and 2 (Table 4) was measured by determining the minimal inhibitory concentration (MIC) necessary to obtain a complete inhibition of bacteria growth in eight indicator strains, namely Staphylococcus aureus (ATCC™ 6538P), Staphylococcus aureus MRS3 (ATCC™ 700699), Staphylococcus epidermidis (ATCC™ 12228), Bacillus subtilis (ATCC™ 23857), Bacillus megaterium (ATCC™ 14581), Enterococcus faecalis VRE-1 (ATCC™ 29212), Enterococcus faecalis VRE-2 (ATCC™ 51299) and Micrococcus luteus (ATCC™ 9341). Indicator strains preparation and MIC determination were performed according to the National Committee for Clinical Laboratory Standards (NCCLS) guideline M7-A5 Methods for Dilution Antimicrobial Susceptibility Tests for Bacteria That Grow Aerobically; Approved Standard-Fifth Edition. (NCCLS document M7-A5, ISBN 1-56238-394-9; NCCLS, 940 West Valley Road, Suite 1400, Wayne, Pa. 19087-1898 USA), the content of which is incorporated herein by reference.
# (§2) Compounds 1 and 2 were prepared as 100× stock solution in DMSO, with concentrations ranging from 3.2 mg/ml to 0.00625 mg/ml (a two-fold dilution series over […]). An aliquot of each 100× stock solution was diluted 50-fold in test medium described below to give a set of ten (10) 2× solutions ranging from 64 to 0.125 μg/mL. 50 μl of each of the ten 2× solutions was aliquoted into the corresponding well of a 12-well row, with the final well reserved for medium alone control. Each test was made in duplicate.
# (§3) Vancomycin (Sigma™) used as positive control compounds, was prepared as 2× stock solutions in sterile, double-distilled water (ddH2O) ranging from 64 μg/ml to […] (a two-fold dilution series over 10 points). An aliquot of 50 μl corresponding to each concentration (at 2×) was then transferred to 96-well microplates to obtain a series of eleven two-fold dilutions.
# (§4) An isolated colony of each of the eight indicator strains was used to inoculate tubes containing 3 ml of test medium. Mueller-Hinton test medium was used for Staphylococcus aureus (ATCC™ 6538P), Staphylococcus aureus MRS3 (ATCC™ 700699), Staphylococcus epidermidis (ATCC™ 12228), Bacillus subtilis (ATCC™ 23857), Bacillus megaterium (ATCC™ 14581) and Micrococcus luteus (ATCC™ 9341) indicator strains, and BHI (Brain-Heart Infusion broth) test medium was used for Enterococcus faecalis VRE-1 (ATCC™ 29212) and Enterococcus faecalis VRE-2 (ATCC™ 51299) indicator strains. Cells were grown overnight at 28° C. with shaking. Inoculum density for each indicator strain was adjusted to OD600=0.1 in 5 ml 0.85% saline, then further diluted 1/100 in appropriate medium. 50 μl of the final dilution (in test medium) of each indicator strain was added to each well of a 12-well row. This brings the final dilution of the test article or control compound in solution to 1×. The final inoculum is approximately 5×10^5 CFU/ml.
# (§5) The indicator strains were incubated with 11 concentrations of each of Compounds 1 and 2, Vancomycin (Sigma™) control compound and one media alone control. For MIC determination, assay plates were incubated at 35° C. for 18 hours.
# [3] = test system: Staphylococcus aureus (ATCC™ 6538P); test: MIC, broth microdilution (NCCLS M7-A5); assay type: cell-based; details: read-out: MIC
# Protocol: as §1, §2, §3, §4, §5
# [4] = test system: Micrococcus luteus (ATCC™ 9341); test: MIC, broth microdilution (NCCLS M7-A5); assay type: cell-based; details: ATCC9341, M. luteus ATCC 9341, Mueller-Hinton, 35° C., 18 hours, read-out: MIC
# Protocol: as §1, §2, §3, §4, §5
# [5] = test system: Bacillus megaterium (ATCC™ 14581); test: MIC, broth microdilution (NCCLS M7-A5); assay type: cell-based; details: Priestia megaterium, ATCC14581; B. megaterium ATCC 14581; Mueller-Hinton; 35° C., 18 hours; read-out: MIC
# Protocol: as §1, §2, §3, §4, §5
# [6] = test system: Enterococcus faecalis VRE-2 (ATCC™ 51299); test: MIC, broth microdilution (NCCLS M7-A5); assay type: cell-based; details: E. faecalis ATCC 51299, BHI, 35° C., 18 hours, read-out: MIC
# Protocol: as §1, §2, §3, §4, §5
# [7] = test system: Staphylococcus epidermidis (ATCC™ 12228); test: MIC, broth microdilution (NCCLS M7-A5); assay type: cell-based; details: read-out: MIC
# Protocol: as §1, §2, §3, §4, §5
# in vitro = assay type: cell-based; details: sheep; concentration to achieve 50% hemolysis of SRBC; read-out: In vitro Hemolytic activity (EC50)
# Protocol: (§6) A. Toxicity: Acute toxicities were determined using CD-1 female mice (supplied by Charles River Laboratories, Wilmington, Mass.) having a bodyweight of 18-25 g, and about 6 weeks of age. Compounds 1 and 2 at doses ranging from 1 to 70 mg/kg (formulated in 20% propylene glycol/water for a total volume of 10 μL/g of weight) were administered intraperitoneal (i.p.) and intravenous (i.v.) to groups of 5 mice (5 mice per concentration, per mode of administration). Two groups of 3 mice were injected with vehicle only. Mice were observed immediately after injection, within 4 hours and once a day for the subsequent days. Acute toxicity studies of Compound 1 in mice indicated no observable effect and high dose tolerability: 70 mg/kg intraperitoneal and 50 mg/kg intravenous (an MTD of 250 mg/kg was also determined by oral administration). […] In vitro Haemolytic activity results are also shown in Table 7, along with the in vivo toxicity and efficacy of Compound 1.
# SRBC = test: in vitro; assay type: cell-based; details: at a concentration of 128 μg/ml
# Protocol: as §6
# [8] = ATCC700699, S. aureus ATCC 700699, Mueller-Hinton, 35° C., 18 hours
# [9] = ATCC6538P, S. aureus ATCC 6538P, Mueller-Hinton, 35° C., 18 hours
# [10] = ATCC12228, S. epidermidis ATCC 12228, Mueller-Hinton, 35° C., 18 hours
Compound,"In vivo efficacy: S. aureus (Smith), protective dose [1]","MIC [2, 8] [µg/mL]","MIC ([2]; Table 6, S. aureus MRSA-hVISA) [µg/mL]","MIC [3, 9] [µg/mL]","MIC ([3]; Table 6, S. aureus MSSA) [µg/mL]",MIC [4] [µg/mL],MIC [5] [µg/mL],MIC [6] [µg/mL],"MIC [7, 10] [µg/mL]","MIC ([7]; Table 6, S. epidermidis) [µg/mL]",EC50 (in vitro) [µg/mL],Haemolytic activity (SRBC)
"CC(=CC=CC=CC=CC=CC(C)C(OC1OC(C(=O)O)C(O)C(O)C1O)C(C)=CC(C)CCCC=CC(C)CC=CCCCN(C)C(=N)N)C(=O)NC1=C(O)CCC1=O (stereo not drawn) [Compound 1, 3,4,5-trihydroxy-6-[1-[11-(2-hydroxy-5-oxocyclopent-1-enylcarbamoyl)-1-methyldodeca-2,4,6,8,10-pentaenyl]-2,4,10-trimethyl-16-(N-methyl-guanidino)-hexadeca-2,8,12-trienyloxy]-tetrahydropyran-2-carboxylic acid]",≦20 mg/kg,4,4,2,2,4,1,16,4,4,> 128,–
"C\C(=C/C=C/C=C/C=C/C=C/C(C)C(OC1OC(C(=O)O)C(O)C(O)C1O)/C(C)=C/C(C)CCC/C=C/C(C)C/C=C/CCCNC(=N)N)C(=O)NC1=C(O)CCC1=O (stereo not drawn) [Compound 2, 6-{16-guanidino-1-[11-(2-hydroxy-5-oxocyclopent-1-enylcarbamoyl)-1-methyldodeca-2,4,6,8,10-pentaenyl]-2,4,10-trimethylhexadeca-2,8,12-trienyloxy}-3,4,5-trihydroxy-tetrahydro-pyran-2-carboxylic acid]",–,1,1,1,1,1 to 2,1,16,1,1,–,No Haemolytic activity
